Data from paper PMC3215869 (Journal of Pharmacokinetics and Pharmacodynamics, 2011).

Key:
[1] = Pharmacokinetic model: typical-rat PK from satellite PK experiments, oral dosing; assay type: in vivo, rats; settings: Sprague-Dawley, plasma
[2] = system: telemetered rat (transitions between SLEEP and WAKE states); assay type: in vivo, Male Sprague–Dawley rats

`COC(=O)C(c1ccccc1)C1CCCCN1` (centres unmarked) [methylphenidate, Methylphenidate] gave a Cmax ([1]; 3 mg) of 44 nM, a Tmax ([1]; 3 mg) of 12 s and a Cmax ([1]; 10 mg) of 146 nM. It also gave a Tmax ([1]; 10 mg) of 12 s, a Cmax ([1]; 30 mg) of 438 nM and a Tmax ([1]; 30 mg) of 12 s. For the same compound, the EC50 ([2]; Rattus norvegicus, intensity v (SLEEP to WAKE, clearance of sleep), plasma concentration, mean (95% confidence limits)) was 288 nM, the “Teq,drug (equilibrium half-life plasma to effect compartment)” value ([2]; delay on intensity u (acquisition of sleep), mean (95% confidence limits)) was 24 (17, 40) min and the “overall effect on sleep/wakefulness compared to placebo” value ([2]; rats, Figs. 4 and 6) was “tend to promote wakefulness”. For the same compound, the “relative potency in inducing sleep fragmentation, methylphenidate versus NCE” value ([2]; rats, from estimated maximum effects) was “fivefold more potent” and the “effect on the transitions between sleep states (intensities)” value ([2]; rats, sign of Emax values, Fig. 2) was “inhibit the transitions from one sleep status to another”.
